# Assay results reported in patent US10017767B2, “Targets in multiple myeloma and other disorders” (FONDAZIONE CENTRO SAN RAFFAELE, priority 2012, dated 2018).
# Experiments:
# MM.1S MM cells = test: MM.1S xenograft mouse model with inducible STK4 knockdown; assay type: in vivo, Fox Chase SCID mice; conditions: subcutaneous, 6 weeks; scrambled shRNA tumors 1965 mm^3
# Procedure: A genetic approach conditionally knocking down STK4 in MM.1S cells was performed. In this study, MM.1S MM cells were infected with either inducible scrambled shRNAs, or inducible pLKO.1-TET shRNA #4 and pTRIPZ 63 directed against STK4 and then injected subcutaneously into three sites (left and right flank and interscapular region) in a group of 12 Fox Chase SCID mice.
# YAP1 = YAP1 knockdown by lentiviral shRNA; assay type: cell-based
# Procedure: Lentiviral short hairpin RNAs (shRNA) were used to knockdown YAP1 and STK4 expression in MM cells. Scrambled control pLKO.1 shRNA vectors and specific YAP1 and STK4 shRNA constructs were kindly provided by Dr. William Hahn (Dana-Farber Cancer Institute).
# The efficacy of each shRNA in silencing gene expression was tested in HCT-116 and HeLa cell lines using Mirus Bio Trans-IT LT1 transfection reagent. To obtain stable silenced clones with YAP1/STK4 shRNA or pLKO.1 control plasmid, the following protocol was used. 293T cells were plated (300,000 cells on 6-cm plates) in DMEM/10% FBS/0.1% P/S. After 24 hours when cells were 60-70% confluent, 1000 ng of vector of interest together with 100 ng p-VSV-G and 900 ng delta 8.94 (both packaging vectors purchased from Addgene) were co-transfected with MIRUS BIO TransIT-LT1 diluted in OPTI-MEM (GIBCO). After 12 hours, 293T media was changed with DMEM/[…] to promote viral production. 24 and 48 hours post transfection, supernatant containing lentiviral particles was harvested, filtered with 0.45 μM diameter filter, and used to infect 2.5×10^6 MM cells. […] After the second cycle of infection, cells were put under selection with a suitable concentration of puromycin. mRNA and protein expression were evaluated 48 and 72 hrs after selection. […]
# ATM = test: CHK2 (Thr68) phosphorylation immunoblot in MM cells; assay type: cell-based
# ABL1 = ABL1 cytoplasmic/nuclear localization by subcellular fractionation and Western blot in MM cell lines; assay type: cell-based; conditions: 2-10 μM; 1, 2, 6 and 24 hs; MM.1S, H929, UTMC-2, JJN-3, KMS-20
# Procedure: (§1) MM cells were harvested and lysed using lysis buffer: 50 mMTris-HCl (pH 7.4), 150 mM NaCl, 1% NP-40, 5 mM EDTA, 5 mM NaF, 2 mM Na3VO4, 1 mM PMSF, 5 μg/mL leupeptine, and 5 μg/mL aprotinin. Nuclear extracts were prepared using Nuclear Extraction Kit (Panomics). Cell lysates were subjected to sodium dodecyl sulfate-polyacrylamide gel electrophoresis SDS-PAGE, transferred to nitrocellulose membranes, and immunoblotted with different antibodies: ATM, phospho-ATM (Ser1981), ATR, phospho-ATR (Ser428), CHK2, phospho-CHK2 (Thr68), CHK1, phospho-CHK1 (Ser296), p21, p53, phospho-p53 (ser127), STK4, LATS1, phospho-LATS1 (Ser909), phospho-ABL1 (Thr735), cleaved caspase 3, cleaved PARP, histone H3, SAPK/JNK, phospho-SAPK/JNK (Thr183/Tyr185), GM130, GAPDH, and α-tubulin (Cell Signaling); STK4, Nuclear Matrix Protein p84 (Abeam), p73 (BD), phospho-H2A.X (Ser139) (Millipore); as well as ABL1, BAX, Puma, Noxa, actin and nucleolin (Santa Cruz Biotechnology).
# [1] = system: KMS-20 cells transfected with pLENTI4-YAP1-EGFP; test: Apoptosis by Annexin V-PE/7AAD on GFP-positive YAP1-transfected cells; assay type: cell-based; conditions: YAP1 reintroduced; with imatinib 10 μM
# Procedure: Cellular counting was performed in triplicate for each condition, with trypan blue exclusion. Right panel: Apoptosis by Annexin V-PE/7AAD, gating on GFP-positive cells. The percentage of viable cells (Annexin V-PE-/7AAD-cells) is shown at 48 hours.
# p-ENTR-YAP1-EGFP plasmid was kindly provided by Dr. Marius Sudol and subcloned into pLENTI4-V5DEST vector using GATEWAY strategy. p-LENTI4-LACZ vector was used as control. KMS-18, KMS-20, MM.1S, RPMI-8226 and UTMC-2 cells (5,000,000) cells were transiently transfected with p-LENTI4 YAP1, using ‘Cell Line Nucleofector Kit V (Amaxa Biosystems, Köln, Germany), according to the manufacturer's instructions. AMAXA program: MM.1S→T-030; RPMI-8226→C-015; KMS-18, KMS-20 and UTMC-2→X-001. Specifically, 5×10^6 cells were resuspended in 100 μL V solution and 2500 ng of plasmid. Following transfection, MM cells were subjected to mRNA analysis, Western blotting, as well as apoptosis, cell counting, and MTT assays.
# In particular, cells were washed twice with room-temperature PBS, resuspended in 100 μL of Annexin binding buffer, and stained with specific antibodies for 20 minutes. After adding other […] of Annexin binding buffer, samples were acquired using FACS Canto II machine from Becton Dickinson, BD, and analyzed with FCS EXPRESS 4 Flow Research Edition software.
# YAP1, p73 = test: Western blot of YAP1, p73 and p73 targets in MM.1S and U266; assay type: cell-based
# Procedure: as §1
# KMS-20 cells = test: MTT viability assay, KMS-20; assay type: cell-based; conditions: KMS-20 YAP1-transfected; imatinib 10 μM from day 0
# Procedure: (§2) Viability of MM cells was evaluated by 3-[4,5-dimethylthiazol-2-yl]-2,5-diphenyltetrazolium bromide (MTT) colorimetric survival assay. MM cells (20,000-50,000) were plated in 100 μL medium. At the various time points (24-96 hours), 10 μL 5 mg/mL MTT were added to plated cells. After 4 hour incubation at 37° C., medium was discarded and 100 μL MTT stop solution (Isopropanonol with […] Hcl) used to dissolve MTT metabolic products. Absorbance was read at 570 nm and background was subtracted at 630 nm, using spectrophotometer SPECTRAMAX M2 machine and Softmax Pro v5 software. Cellular growth was estimated by cell counting in triplicates, excluding dead cells stained by trypan blue.
# [2] = MTT viability assay, KMS-20; assay type: cell-based; conditions: human, KMS-20 multiple myeloma cells, LACZ-transfected; read-out: 48 hour viability (MTT, normalized to LACZ+DMSO)
# Procedure: as §2
# MM.1S cells [3] = test: MTT viability assay, MM.1S; assay type: cell-based, human; conditions: MM.1S YAP1-transfected; imatinib 10 μM from day 0
# Procedure: as §2
# U266 cell line = test: MTT viability assay, U266; assay type: cell-based; conditions: 48 h
# Procedure: as §2
# UTMC-2 cells [4] = test: MTT assay, UTMC-2; assay type: cell-based, human; conditions: doxorubicin 40 nM, 48 hours
# Procedure: as §2
# MTT assay, UTMC-2 = assay type: cell-based, human; conditions: human, UTMC-2 multiple myeloma cells; UTMC-2; doxorubicin 40 nM, 48 h; read-out: cell viability by MTT assay
# Procedure: as §2
# U266 MM cell line [5] = test: Apoptosis by Annexin V-FITC/PI staining, U266; assay type: cell-based
# Procedure: (§3) In particular, cells were washed twice with room-temperature PBS, resuspended in 100 μL of Annexin binding buffer, and stained with specific antibodies for 20 minutes.
# MM.1S and UTMC-2 = test: DNA damage markers and nuclear ABL1 in MM.1S and UTMC-2; assay type: cell-based, human; conditions: doxorubicin 40 nM
# Procedure: as §1
# [6] = MTT viability assay, MM.1S; assay type: cell-based, human; conditions: human, MM.1S multiple myeloma cells; MM.1S; doxorubicin 40 nM, 48 h; read-out: cell viability by MTT assay
# Procedure: as §2
# U266 MM cell line [7] = test: DNA damage markers and ABL1 localization in U266; assay type: cell-based; conditions: doxorubicin 40 nM
# Procedure: MM cells were harvested and lysed using lysis buffer: 50 mMTris-HCl (pH 7.4), 150 mM NaCl, 1% NP-40, 5 mM EDTA, 5 mM NaF, 2 mM Na3VO4, 1 mM PMSF, 5 μg/mL leupeptine, and 5 μg/mL aprotinin. Nuclear extracts were prepared using Nuclear Extraction Kit (Panomics). […]
# 15,000 cells from MM cell lines, PBMCs or MM patient samples were cytospun for 5 minutes at 350-500 rpm, fixed in 4% paraformaldehyde (PFA) for 15 minutes, washed three times with PBS, and incubated with 0.1M glycin for 10 minutes to quench PFA autofluorescence. […] The slides were then mounted with ProLong Gold Antifade Reagent (Invitrogen), and images were taken using a Zeiss microscope (Carl Zeiss) equipped with Hamamatsu ORCA-ER camera (Hamamatsu Photonics) and analyzed with ImageJ software. […]
# MM.1S cells [8] = test: Apoptosis by Annexin V-FITC/PI staining, MM.1S; assay type: cell-based, human
# Procedure: as §3
# [9] = MTT viability assay, U266; assay type: cell-based; conditions: human, U266 multiple myeloma cells
# Procedure: as §2
# UTMC-2 cells [10] = conditions: doxorubicin 40 nM, 48 h, before treatment 19.1%
molecule,measurement,setting,value
pLKO.1-TET shRNA #4: inducible shRNA directed against STK4; clone #4 target sequence GCCAAGCGGAATACAGTGATA (the letters are possibly those of the target site),xenograft tumor growth,MM.1S MM cells,no growth was evident
"shRNA #3: lentiviral shRNA targeting YAP1, CAGGTGATACTATCAACCAAA (the letters are possibly those of the target site)",knockdown of YAP1,YAP1,robust knockdown of YAP1
"shRNA #1: lentiviral shRNA targeting YAP1, CCCAGTTAAATGTTCACCAAT",knockdown of YAP1,YAP1,robust knockdown of YAP1
O=c1cc(-c2cccc3c2Sc2ccccc2S3)oc(N2CCOCC2)c1 [Ku55933],CHK2 phosphorylation at Thr68,ATM,reduction in CHK2 phosphorylation at Thr68
same,cytoplasmic and nuclear ABL1 levels,ABL1,"increase in the levels of cytoplasmic ABL1, and a concomitant strong reduction of nuclear ABL1"
Cc1ccc(NC(=O)c2ccc(CN3CCN(C)CC3)cc2)cc1Nc1nccc(-c2cccnc2)n1 [imatinib],apoptotic cells after reintroduction of YAP1,[1],9.1%
same,"YAP1, p73 and p73-target expression triggered by DNA-damaging agents","YAP1, p73; doxorubicin 40 nM with imatinib 10 μM","stifled the increase in YAP1, p73 and p73-target expression"
same,"48 hour viability (MTT, normalized to LACZ+DMSO)",KMS-20 cells,96.7%+8.9
same,"viability at 48 h, 10 µM",[2],103%
same,"48 hour viability (MTT, normalized to LACZ+DMSO)",MM.1S cells [3],86.1%±20.6
same,viability at 10 µM,"U266 cell line; Homo sapiens, U-266, 48 h, doxorubicin 40 nM with imatinib 10 μM, doxorubicin alone 52.8%",78.5%
COc1cccc2c1C(=O)c1c(O)c3c(c(O)c1C2=O)C[C@@](O)(C(=O)CO)C[C@@H]3O[C@H]1C[C@H](N)[C@H](O)[C@H](C)O1 [doxorubicin],percentage of apoptotic cells by MTT assay,UTMC-2 cells [4]; UTMC-2 control cells,37.4%
same,percentage of apoptotic cells by MTT assay,UTMC-2 cells [4]; UTMC-2 stably YAP1-silenced,15.8%
same,"viability at 48 h, 40 nM","MTT assay, UTMC-2",66.5%
same,YAP1 and p73 protein levels,"YAP1, p73; doxorubicin 40 nM","induced YAP1, as well as p73"
same,apoptotic cells (Annexin V and PI staining),"U266 MM cell line [5]; doxorubicin 40 nM, 48 h, before treatment 13.1%",40.1%
same,"γ-H2AX, pATM, pJNK and nuclear ABL1",MM.1S and UTMC-2,"increase in γ-H2AX, pATM, and pJNK was evident, along with a major increase in nuclear ABL1"
same,"viability at 48 h, 40 nM",[6],33.3%
same,ABL1 localization,U266 MM cell line [7],ABL1 moved to the nuclear compartment
same,"γ-H2A.X foci, pATM and pJNK phosphorylation",U266 MM cell line [7],induced multiple γ-H2A.X foci and strong pATM and pJNK phosphorylation
same,apoptosis (Annexin V-FITC/PI),"MM.1S cells [8]; doxorubicin 40 nM, 48 h, before treatment 12.4%",55.3%
same,"viability at 48 h, 40 nM","[9]; doxorubicin 40 nM, 48 h, read-out: viable cells (MTT assay)",50%
same,viable cells (MTT assay),U266 cell line; doxorubicin 40 nM,52.8%
same,apoptosis (Annexin V-FITC/PI),UTMC-2 cells [10],57.8%
CCOc1cc2ncc(C#N)c(Nc3ccc(OCc4ccccn4)c(Cl)c3)c2cc1NC(=O)/C=C/CN(C)C [HKI-272],apoptosis (Annexin V-PI),"U266 MM cell line [5]; 10 μM, untreated 10%",43%
same,apoptosis (Annexin V-FITC/PI),"MM.1S cells [8]; 10 μM, untreated 11%",67%
same,"viability at 24 h, 10 µM","[9]; 10 μM, 24 h, read-out: 24 hour viability (MTT, normalized to DMSO)",98.2%
same,"viability at 48 h, 10 µM","[9]; 10 μM, 48 h, read-out: 48 hour viability (MTT, normalized to DMSO)",87.8%
same,"viability at 72 h, 10 µM","[9]; 10 μM, 72 h, read-out: 72 hour viability (MTT, normalized to DMSO)",56.9%
same,"viability at 96 h, 10 µM","[9]; 10 μM, 96 h, read-out: 96 hour viability (MTT, normalized to DMSO)",17.9%
